This note sets out measurements from US8541670B2, “Compositions and methods for inhibiting tumor cell growth” (priority 2007, dated 2013).

Where no end group is shown, it is not given here.

The target in one test is T1, JAK3 (Homo sapiens, UniProt P52333).
T1 construct: endogenous in cells
T1 sequence (P52333 1-1124): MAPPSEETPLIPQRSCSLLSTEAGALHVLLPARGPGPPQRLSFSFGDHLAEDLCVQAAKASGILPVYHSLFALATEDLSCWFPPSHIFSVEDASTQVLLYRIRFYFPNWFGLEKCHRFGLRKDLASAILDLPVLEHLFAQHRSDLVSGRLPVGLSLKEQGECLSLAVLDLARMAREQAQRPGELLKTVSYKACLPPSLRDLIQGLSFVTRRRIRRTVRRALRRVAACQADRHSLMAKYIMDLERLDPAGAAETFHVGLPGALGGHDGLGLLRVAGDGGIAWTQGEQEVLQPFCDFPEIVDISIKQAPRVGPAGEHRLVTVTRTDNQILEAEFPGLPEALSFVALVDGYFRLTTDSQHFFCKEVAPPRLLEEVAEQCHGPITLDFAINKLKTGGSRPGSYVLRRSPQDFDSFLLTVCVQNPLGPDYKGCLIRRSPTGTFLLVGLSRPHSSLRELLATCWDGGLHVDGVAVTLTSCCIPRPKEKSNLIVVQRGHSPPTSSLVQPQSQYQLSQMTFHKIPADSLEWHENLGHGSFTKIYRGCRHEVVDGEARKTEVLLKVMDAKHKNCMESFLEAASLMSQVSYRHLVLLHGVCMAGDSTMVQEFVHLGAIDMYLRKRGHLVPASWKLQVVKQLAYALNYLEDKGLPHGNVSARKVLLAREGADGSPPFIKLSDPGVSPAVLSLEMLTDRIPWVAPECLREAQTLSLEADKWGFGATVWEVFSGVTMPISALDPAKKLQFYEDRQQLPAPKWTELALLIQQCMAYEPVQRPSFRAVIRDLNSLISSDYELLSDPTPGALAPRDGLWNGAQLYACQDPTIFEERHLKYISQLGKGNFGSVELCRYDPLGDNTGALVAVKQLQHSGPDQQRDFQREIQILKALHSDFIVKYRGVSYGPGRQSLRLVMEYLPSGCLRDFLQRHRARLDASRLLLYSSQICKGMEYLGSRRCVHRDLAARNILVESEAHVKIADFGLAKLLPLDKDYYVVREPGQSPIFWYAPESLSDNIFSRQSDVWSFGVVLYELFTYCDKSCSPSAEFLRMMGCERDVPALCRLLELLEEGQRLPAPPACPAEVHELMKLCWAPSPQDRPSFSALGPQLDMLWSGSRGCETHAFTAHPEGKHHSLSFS
Briefly: In vitro kinase assay JAK3. It is filed as biochemical. As to conditions: ten times higher concentration than 0.1 μM. As to the method: As a specific substrate, the phosphorylation level of GSK-3[…] at Ser-9 was also evaluated. […] The decrease was specific to the AKT phosphorylation site on GSK-3[…] at Ser-9, since a change in the phosphorylation level of GSK-3[…] at Tyr-216 or GSK-3[…] at Tyr-279 was not observed. Moreover, the in vivo reduction of the phosphorylation of AKT substrates was more obvious at the injection site, since a significant change in the phosphorylation of AKT substrates in the frontal cortex or cerebellum between the two hemispheres was not observed. […] To test the specificity/selectivity of ZaTa as the inhibitor of AKT1 versus the other major kinases, a series of in vitro kinase assays was performed at IC50 for AKT1 and at ten times higher concentrations. A panel of the following 32 kinases was first tested in vitro using the active form of each kinase and a specific substrate: AKT2, AKT3, PKA, PKC[…], PKC, PI3K[…], PI3K[…], PI3K, SGK, PAK2, PAK3, SAPK2/p38, Abl, CaMKII, CDK1/cyclinB, CDK5/p35, CK1, CK2, CSK, GSK3[…], GSK3[…], JNK1[…]1, MAPK1, p70S6K, PDGFR[…], PDGFR[…], PDK1, PKG1[…], TrkB, JAK2, JAK3, and Syk. […] However, at ten times higher concentration, ZaTa inhibited AKT2 (63%), PI3K[…] (72%), p70S6K (64%), SGK (73%), PAK3 (83%), JAK3 (79%), TrkB (84%), and Abl (42%). […]

Another test concerns N2a cells. Nature of the test: Neurite count and live imaging of N2a neurons. The format is cell-based. As to the method:
Accordingly, the stability and phenotypic consequences of the AKT-PKAc complex was also analyzed in cultured neurons. N2a cells were treated with vehicle, ZaTa or control peptide for 24 hours. Media was removed after the 24-hour treatment and an equal number of cells from each treatment group was either cultured for another 24 hours without treatment, or lysed and subjected to immunoprecipitation with an antibody against AKT. Those cells cultured for another 24 hours were also harvested and subjected to immunoprecipitation. In parallel, the number of individual neurons with neurites was counted. […] Live images of N2a neurons were captured following treatment with vehicle or ZaTa (2 or 5 μM). […] ZaTa-mediated changes included a progressive loss of neurites, inhibition of new neurite formation, loss of cell motility, as well as formation of large cell colonies.

On to AKRVKGRTWTLCGTPEY [ZaTa], for which the “inhibition of JAK3” value at JAK3 was 79%. Further, in the test on N2a cells (2 or 5 μM), the “morphology of N2a neurons, live images” value is reported as “dramatic morphological changes”. In addition, the “reversibility of neurite reduction” value in the test with N2a cells (24-hour incubation in the absence of ZaTa) is listed as “reversible”. Besides, the “number of neurons with neurites” value with N2a cells (24-hour treatment) is on record as “significant reduction”.
